Patent US11628186B2, “Method and composition for the reduction of viral replication, duration and spread of the COVID-19 and the flu” (priority 2017, dated 2023)
Like-named read-outs stand apart in the source and are kept apart here.

Columns and labels:
lung tumors = details: cited from earlier work
[1] = system: human lung cancer cell line; details: cited from earlier work
tumors = assay: Pre-inhalation of the formula before inhaled 3-bromopyruvate; format: in vivo, rats
Method: The problem with 3-bromopyruvate was its toxicity to normal lung cells. The formula needed to protect noncancerous cells from 3-bromopyruvate and to enhance its effect on tumors, was the addition of inhaled 20 mM solution of sodium pyruvate, calcium, phosphate, magnesium formula inhaled 1-2 hours prior to the inhalation of the 10 mg of 3-bromopyruvate. The investigators were given the sodium pyruvate with calcium, phosphate and magnesium formula and instructed to have the rats inhale the formula 1-2 hours prior the inhalation of the cancer drug. This approach reduced tumor sizes by 90% compared the 60% reduction with 3bromopyruvate by itself. The addition of dichloroacetate with 3-bromopyruvate to the sodium pyruvate with calcium, phosphate and magnesium formula was the best formula decreasing tumor loads by 95%, especially with the addition of magnesium bicarbonate that increased the PH to 7.9 to neutralize the lactic acid produced in tumors that enhance tumorigenesis.

[2] = system: patients with sinus & lung diseases including IPF and COPD; assay: Salts of pyruvate as 20 mM nasal sprays (Table IX); details: for Overall Rating 1-10: 20 mM (0.22%) nasal spray, 1 most negative, 10 best; for Increased in FEV-1% / Irritation / Percentage Increase in SaO2 over baseline / Percentage increase of Nitric Oxide over baseline / Relief of congestion, coughing and lung tightness: in vivo
From the text: They never tested the individual salts for their ability to reduce inflammation or increase lung functions.

[3] = system: patients with lung diseases including COPD; assay: Comparison of inhaled salts of pyruvate, 5 ml of 5 mM solution (Table II); details: for Increased in FEV-1%: 5 ml of 5 mM solution in saline; for Increased in FEV-1% / Irritation / Percentage Increase in SaO2 over baseline / Percentage increase of Nitric Oxide over baseline / Relief of congestion, coughing and lung tightness: inhaled; for Irritation / Percentage Increase in SaO2 over baseline / Percentage increase of Nitric Oxide over baseline / Relief of congestion, coughing and lung tightness / Overall Rating 1-10: 5 ml of 5 mM solution; for Overall Rating 1-10: 1 most negative, 10 best
[4] = system: patients suffering from Parkinson; assay: Inhaled pyruvate salts in Parkinson patients; format: in vivo, human; details: 1 mM solution in the calcium, phosphate, magnesium formula, inhaled every day for five weeks
[5] = system: patients with lung diseases including COPD; assay: Comparison of inhaled salts of pyruvate, 5 ml of 0.5 mM solution (Table I); details: for Increased in FEV-1% lung function: 5 ml of 0.5 mM solution in physiological saline; for Overall Rating 1-10: 1 most negative, 10 best
Method: All previous studies using pyruvate to treat Allergic Rhinitis, Asthmatic and COPD patients used only the sodium salt form of pyruvic acid in saline. The drug products that were tested in the six Phase I/II clinical trial were differing concentrations of sodium pyruvate dissolved in 0.9% sodium chloride solution (Saline). These drug products contained 0.5 mM, 1.5 mM, or 5.0 mM of sodium pyruvate in physiological saline. They were administered to normal volunteers and COPD and asthmatics by inhalation therapy. […] Various sodium pyruvate solutions were evaluated in the lungs for their ability to enhance FEV1 values and reduce coughing, and lung tightness.
The amount of the salts delivered in the 5 ml's of the 0.5 mM pyruvate solutions were compared to the amounts of the salts in 5 ml's of human blood. […] When ethyl pyruvate reacts with oxygen radical like hydrogen peroxide, it is converted to ethane and alcohol and Co2 and acetate. Ethane and alcohol are lung irritants.
This formula can also be made by adding 3% calcium phosphate or dicalcium phosphate to the standard 0.5 mM to 30 mM sodium pyruvate saline solution see Table I.

Smokers = assay: Inhaled nicotine in pyruvate formulas
[6] = system: patients with chronic Hypoxemia; assay: Various drugs with or without pre-inhaled pyruvate formulas (Table VII); format: in vivo, human; details: in vivo
Method: With the hundreds of patients tested in our various clinical trials, data was gathered as to the type of medications the patients used and the frequency of their use over a six-month period. The patients were asked to rate their medications form 1-10 with 1 being the most irritating with the most side effects and 10 being the best with no irritation and no side effects. In these clinical trials, various drugs were evaluated for irritation, mucus production, and efficacy in humans. The drugs were all evaluated using their current formulations and concentrations against the same formulations with the addition of sodium pyruvate, with the calcium, phosphate and magnesium formula given just prior to the use of their medications. They were instructed to 20 inhale this formula just prior to the use of their medications and to evaluate the effect of their medications on the 1-10 scale.
Patients on the various inhaled medications whether inhaled or taken orally or by IV infusion, were enlisted in the evaluation of the inhaled sodium pyruvate calcium, phosphate and magnesium formula. The patients were tested for their SaO2 levels and those that had SaO2 levels below 92% were asked to enlist in the study. […] After the SaO2 levels were determined prior to and one hour after taking their medications, the patients returned the following day, SaO2 measurements were taken one hour prior to taking their medications. The patients were then handed the hypotonic inhalation formula of sodium pyruvate with calcium, phosphate magnesium formula and instructed to inhale it one hour before taking their medications, SaO2 measurements were then taken one hour after taking their medications.

[7] = Mucolytic activity with inhaled acetylcysteine; format: in vivo, human; details: with or versus commercial inhaled acetylcysteine
[8] = Viable non-cancerous cells after incubation with anticancer drugs in various media (Table VIII); format: cell-based; design: viability: concentration or dose not given beside the values; details: non-cancerous cells (normal peripheral blood monocytes)
Method: Peripheral blood monocytes and U937 monocytic leukemia tumor cells were placed in sterile culture flasks and maintained in culture using Dulbecco's Minimal Essential Medium, with 10% fetal calf serum, supplemented with 2 mM glutamine and Pen/Strep. The cytotoxicity of the cytotoxic agent on the cells was analyzed by propidium iodide exclusion techniques and flow cytometric quantitation. Viability of the cells was quantified as the number of cells that excluded the vital dye trypan blue. Sodium pyruvate was dissolved in distilled water and the solution was adjusted to pH 7.4 with calcium, phosphate and magnesium. Solutions were sterile filtered. Stock solutions were prepared so that the vehicle would not be more than 1% of the total volume of the culture media. H-Thymidine Radiosotopic Incorporation Measurement of Cytotoxity. The membrane surfactant enhancers agents (sodium pyruvate and calcium, phosphate and magnesium), was examined for their ability to decrease the Cytotoxity of Doxorubicin to U937 monocytic leukemia cells and normal peripheral blood monocytes. […] Susceptibility studies were conducted to determine the optimal treatment time of the cells with the […] agents prior to treatment of the cells with the cytotoxic agent. The normal cells and U937 leukemic tumor cells were pretreated separately in “wash out” studies with the single agents alone, and in combination, at the optimal concentration described above for various time periods, washed with fresh medium to remove the agents, and treated with the cytotoxic agent. The co-culture of normal and U937 leukemic […] cells was treated essentially in the same manner except that the cells were not treated separately, but co-cultured. […] The cells were then placed in culture medium without the protective agents. […] Normal and U937 tumor cells were co-cultured and the Cytotoxity of Doxorubicin on the cells was determined by viability assays which examined the differential ability of the cytoprotective compositions alone, and in combinations, to protect the normal cells from the Cytotoxity of the chemotherapeutic agent. The cells were isolated and examined for morphological evidence of cytotoxicity or prevention of cytotoxicity. […] DNA synthesis studies using 3Hthymidine (1 uCi/well) were carried out 4 hours prior to termination of the experiment to determine the effect of the formulations on the proliferation of the cells as a measure of the prevention of cytotoxicity and the extent of Doxorubicin-induced cytotoxicity. Propidium iodide exclusion analysis was carried out for direct quantitation of the cytotoxicity and the prevention of cytotoxicity. Each set of studies was performed in triplicate so that statistical analysis of the significant differences between the treatment groups could be conducted. […] Wash-out studies were conducted to determine viability of the peripheral blood monocytes co-cultured with U937 monocytic leukemia cells after 24 hour pretreatment of the cells with the surfactant enhancer, which is also a mitochondrial protective agent, followed by administration of Doxorubicin.

SARS CoV = format: cell-based
[9] = system: Patients with a severe case of CIVID-19 infection; format: in vivo, human; details: 5 patients treated with just the gas
[10] = system: porcine respiratory coronavirus (PRCV); assay: Antiviral assay with NO donor in swine testicular (ST) cells; format: cell-based; details: NO donor SNAP
Method: We examined NO levels by Greiss assay in bronchoalveolar lavage (BAL) of pigs infected with either porcine respiratory coronavirus (PRCV). The antiviral effects of NO on this virus was tested in an in vitro system using a NO donor, S-nitroso-N-acetyl penicillamine (SNAP). We detected a large increase in NO levels in BAL fluids of PRCV-infected pigs. Pulmonary epithelial cell necrosis induced by PRCV coincided with increased NO. […] NO plays a role in innate immunity to respiratory CoV infections by inhibiting viral replication.

[11] = 1 atm, cited from earlier work
[12] = aerosol, 10 mg/5 mL by inhalation, 8 weeks
[13] = 5 ml of 0.5 mM solution, inhaled
[14] = Drugs in commercial formula with sodium chloride only, read-out: Percentage of viable non-cancerous cells
[15] = Drugs in commercial formula with sodium pyruvate with calcium & phosphate & Magnesium ions repeat study, read-out: Percentage of viable non-cancerous cells
[16] = Drugs in commercial formula with sodium pyruvate with calcium & phosphate & magnesium ions, read-out: Percentage of viable non-cancerous cells
[17] = Drugs in commercial formula with sodium pyruvate without calcium & phosphate & magnesium, read-out: Percentage of viable non-cancerous cells
[18] = drug alone, read-out: Percentage of viable cells after incubation with drugs

Compound: O=C(O)C(=O)CBr [3-bromopyruvate]
- decreased tumor load (lung tumors; [12]): 60%
- decreased tumor multiplicity (lung tumors; [12]): 40%
- liver toxicity (lung tumors; aerosolized): did not accompany any liver toxicity
- apoptosis [1]: induced apoptosis through caspase-3, and PARP
- reduced tumor sizes (tumors; 20 mM sodium pyruvate, calcium, phosphate, magnesium formula inhaled 1-2 hours prior to 10 mg of 3-bromopyruvate): 90%
- reduction of tumor sizes (tumors; by itself): 60%

Compound: CC(=O)C(=O)[O-].[Li+] [Lithium, lithium pyruvate]
- Overall Rating 1-10 [2]: 2
- Increased in FEV-1% [2]: 0.0%
- Irritation [2]: Yes
- Percentage Increase in SaO2 over baseline [2]: No
- Percentage increase of Nitric Oxide over baseline [2]: 00.0%
- Relief of congestion, coughing and lung tightness [2]: 2
- Increased in FEV-1% [3]: 1.0%
- Irritation [3]: Yes
- Percentage Increase in SaO2 over baseline [3]: No
- Percentage increase of Nitric Oxide over baseline [3]: 28.0%
- Relief of congestion, coughing and lung tightness [3]: 2
- Overall Rating 1-10 [3]: 2
- shaking [4]: substantially reduced
- Increased in FEV-1% lung function ([5]; inhaled): 1.0%
- Irritation [5, 13]: Yes
- Percentage Increase in SaO2 over baseline [5, 13]: No
- Percentage decrease or increase of Nitric Oxide over baseline [5, 13]: +6.0%
- Relief of congestion, coughing and lung tightness [5, 13]: 2
- Overall Rating 1-10 ([5]; 5 ml of 0.5 mM solution): 2
- reduction of nitric oxide ([5]; 5 mls of a 0.5 mM inhalation solution): did not reduce nitric oxide
- irritation in the nasal cavities compared with the lungs ([5]; evaluated in the nasal cavities): even more irritating
- bronchial dilator effect ([5]; inhaled): acting as a bronchial dilator
- Irritation ([5]; inhaled into the lungs): irritating

Compound: CN1CCCC1c1cccnc1 (centres unmarked) [Nicotine]
- ability of each patient to determine the effect of nicotine delayed (Smokers; Nicotine delivered only with sodium pyruvate in saline solution): 26%
- tolerability (Smokers; nicotine in modified formula sodium pyruvate and calcium, phosphate and magnesium, nasal or lungs): well tolerated
- SaO2 Measurements taken after medication and compared to baseline [6]: −3
- SaO2 Measurements taken after taking the medication and compared to baseline [6]: +2
- SaO2 measurements taken after taking medication and compared to baseline [6]: +4

Compound: CC(=O)C(=O)N[C@@H](CS)C(=O)O [Pyruvyl-cysteine]
- Increased in FEV-1% [3]: 5%
- Percentage Increase in SaO2 over baseline [3]: 0%
- Percentage increase of Nitric Oxide over baseline [3]: 1%
- Relief of congestion, coughing and lung tightness [3]: 8
- Overall Rating 1-10 [3]: 8
- mucolytic activity [7]: as effective as acetylcysteine
- Increased in FEV-1% lung function ([5]; inhaled): 11%
- Percentage Increase in SaO2 over baseline [5, 13]: 0%
- Percentage decrease or increase of Nitric Oxide over baseline [5, 13]: 0%
- Relief of congestion, coughing and lung tightness [5, 13]: 5
- Overall Rating 1-10 ([5]; 5 ml of 0.5 mM solution): 8

Compound: O=c1[nH]c(=O)n([C@H]2C[C@H](O)[C@@H](CO)O2)cc1F [floxuridine]
- viability [8, 14]: 38%
- viability [8, 15]: 91%
- viability [8, 16]: 92%
- viability [8, 17]: 58%
- viability [8, 18]: 38%

Compound: CN(Cc1cnc2nc(N)nc(N)c2n1)c1ccc(C(=O)N[C@@H](CCC(=O)O)C(=O)O)cc1 [methotrexate]
- viability [8, 14]: 43%
- viability [8, 15]: 98%
- viability [8, 16]: 94%
- viability [8, 17]: 68%
- viability [8, 18]: 42%

Compound: [N]=O [nitric oxide]
- replication cycle of SARS CoV (SARS CoV): specifically inhibits the replication cycle of SARS CoV
- lung surfactants and lung fibrosis [9]: did not increase lung surfactants or reduce lung fibrosis
- PRCV replication [10]: significantly inhibited PRCV replication
- solubility in water ([11]; 20° C.): 4.6 ml/100 ml
- solubility in water ([11]; 60° C.): 2.37 ml/100 ml

Compound: magnesium pyruvate
- Overall Rating 1-10 [2]: 4
- Increased in FEV-1% [2]: 4.0%
- Irritation [2]: slight
- Percentage Increase in SaO2 over baseline [2]: no
- Percentage increase of Nitric Oxide over baseline [2]: 5.1%
- Relief of congestion, coughing and lung tightness [2]: 6
- Increased in FEV-1% [3]: 2.0%
- Irritation [3]: None
- Percentage Increase in SaO2 over baseline [3]: no
- Percentage increase of Nitric Oxide over baseline [3]: 5.1%
- Relief of congestion, coughing and lung tightness [3]: 6
- Overall Rating 1-10 [3]: 7
- shaking [4]: also worked
- Increased in FEV-1% lung function ([5]; inhaled): 12.0%
- Irritation [5, 13]: None
- Percentage Increase in SaO2 over baseline [5, 13]: no
- Percentage decrease or increase of Nitric Oxide over baseline [5, 13]: −2.0%
- Relief of congestion, coughing and lung tightness [5, 13]: 6
- Overall Rating 1-10 ([5]; 5 ml of 0.5 mM solution): 7
- FEV1 ([5]; 5 mls of a 0.5 mM pyruvate inhalation solution in COPD and asthmatic patients): 10%
